Test results from the NIST ThermoML archive (doi:10.1016/j.jct.2016.10.007).

Key:
[1] = wn = mass fraction of the nth substance listed; conditions: Wilhemy plate method
[2] = Wilhemy plate method

CCN(CC)CCO [(diethylamino)ethanol] + O
surface tension liquid-gas [mN/m], [1]
Conditions | 303.2 K | 313.2 K | 323.2 K
w1 = 0.1 | 41.2 | 39.2 | 37.3
w1 = 0.137 | 40.1 | – | –
w1 = 0.2 | 36.5 | 34.7 | 33.1
w1 = 0.213 | 36.3 | – | –
w1 = 0.3 | 34.9 | 33.2 | 31.7
w1 = 0.4 | 33.6 | 32.1 | 30.7
w1 = 0.483 | 32.9 | – | –
w1 = 0.5 | 32.7 | 31.2 | 29.9
w1 = 0.58 | 31.8 | – | –
w1 = 0.6 | 31.3 | 29.8 | 28.3
w1 = 0.685 | 30.7 | – | –
w1 = 0.7 | 30.3 | 28.7 | 27.3
w1 = 0.8 | 29.6 | 28 | 26.6
w1 = 0.814 | 29.5 | – | –
w1 = 0.9 | 28.7 | 27.3 | 26
w1 = 0.91 | 28.6 | – | –
w1 = 1 | 27.7 | 26.4 | 25.2

CCN(CC)CCO [(diethylamino)ethanol]
[2]
Conditions | surface tension liquid-gas [mN/m]
283.2 K | 29.7
293.2 K | 28.6
303.2 K | 27.7
313.2 K | 26.4
323.2 K | 25.2

O [water]
Conditions | surface tension liquid-gas [mN/m]
[2], 298.2 K | 71.9
